Results published in patent publication US20080200473A1, “Imidazo [1,2-a]Pyridine Compounds, Compositions, Uses and Methods Thereto” (Ferrer Internacional, S.A., priority 2004, published 2008).

Key:
[1] = system: α1-GABAA receptor; assay: Ligand-binding assay, competitive with radiolabeled flumazenil, cerebellum membranes; conditions: Affinity for α1-GABAA receptor, rat cerebellum membranes, radiolabeled flumazenil 1 nM; for % Inhibition 10^−5M: 10^-5M test compound; for % Inhibition 10^−7M: 10^-7M test compound
Protocol: (§1) Ligand-binding assays. Determination of the affinity of test compounds for α1- and α2-GABAA receptor.
(§2) Male Sprague-Dawley rats weighing 200-250 g at the time of experiment were used. After decapitation of the animal, the cerebellum (tissue that mostly contains α1-GABAA receptor) and spinal cord (tissue that mostly contains α2-GABAA receptor) were removed. The membranes were prepared according to the method by J. Lameh et al. (Prog. Neuro-Psychopharmacol. Biol. Psychiatry, 24, 979-991, 2000) and H. Noguchi et al. (Eur. J. Pharm., 434, 21-28, 2002). Once the tissues weighed, they were suspended in 50 mM Tris.HCl (pH 7.4), 1:40 (w/v), or sucrose 0.32 M in the case of spinal cord, homogenized and then centrifuged at 20,000 g for 10 min at 7° C. twice. The resulting pellet was resuspended under the same conditions and centrifuged again. The pellet was finally resuspended on a minimum volume and kept at −80° C. overnight. On the next day, the process was repeated until the final pellet was resuspended at a ratio of 1:10 (w/v) in the case of cerebellum and at a ratio of 1:5 (w/v) in the case of spinal cord.
(§3) Affinity was determined by competitive tests using radiolabeled flumazenil as ligand. The tests were performed according to the methods described by S. Arbilla et al. (Eur. J. Pharmacol., 130, 257-263, 1986); and Y. Wu et al. (Eur. J. Pharmacol., 278, 125-132, 1995) using 96-well microtiter plates. The membranes containing the study receptors, flumazenil (radiolabeling at a final concentration of 1 nM) and ascending concentrations of test compounds (in a total volume of 230 μL in 50 mM [ph 7.4] Tris.HCl buffer) were incubated. Simultaneously, the membranes were only incubated with the radiolabeled flumazenil (total binding, 100%) and in the presence of an elevated concentration of unradiolabeled flumazenil (non-specific binding, % estimation of radiolabeled ligand). The reactions started on adding the radiolabeled ligand followed by incubation for 60 minutes at 4° C. At the end of the incubation period, 200 μL of reaction were transferred to a multiscreen plate (Millipore) and filtered using a vacuum manifold and then washed three times with cold test buffer. The multiscreen plates were equipped with a GF/B filter that retained the membranes containing the receptors and the radiolabeled ligand which has been bound to the receptors. After washing, the plates were left till dry. Once dried, scintillation liquid was added and left under stirring overnight. The next day the plates were counted using a Perkin-Elmer Microbeta scintillation counter.
(§4) For analysis of the results the percentage of specific binding for every concentration of test compound was calculated as follows:
(§5) % specific binding=(X−N/T−N)×100
(§6) where, X: amount of bound ligand for every concentration of compound. T: total binding, maximum amount bound to the radiolabeled ligand. N: non-specific binding, amount of radiolabeled ligand bound in a non-specific way irrespective of the receptor used.
(§7) Every concentrations of compound were tested in triplicate and their mean values were used to determine the experimental values of % specific binding versus the concentration of compound. Affinity data are expressed as % inhibition at 10^-5M and 10^-7M concentrations.

[2] = system: α2-GABAA receptor; assay: Ligand-binding assay, competitive with radiolabeled flumazenil, spinal cord membranes; conditions: Affinity for α2-GABAA receptor, rat spinal cord membranes, radiolabeled flumazenil 1 nM; for % Inhibition 10^−5M: 10^-5M test compound; for % Inhibition 10^−7M: 10^-7M test compound
Protocol: as §1, §2, §3, §4, §5, §6, §7

[3] = system: mice; assay: In vivo predictive sedation-hypnosis test (inhibition of traveled distance); parameters: species or system mouse; conditions: male CD1 mice; single equimolecular intraperitoneal doses; traveled distance over 30 min after dosing (first 5 min discarded) versus control
Protocol: In vivo determination of predictive sedative-hypnotic action.
The in vivo effects of these compounds were assessed by a predictive sedation-hypnosis test in mice (D. J. Sanger et al., Eur. J. Pharmacol., 313, 35-42, 1996; and G. Griebel et al., Psychopharmacology, 146, 205-213, 1999).
Groups of 5-8 male CD1 mice, weighing 22-26 g at the time of test, were used. The test compounds were administered in single equimolecular intraperitoneal doses, suspended in 0.25% agar with one drop of Tween in a volume of 10 mL/kg. Control animals received the vehicle alone. Using a Smart System (Panlab, S. L., Spain) the traveled distance in cm is recorded for each mouse at 5-min intervals during a period of 30 minutes after dosing. The inhibition percentage of traveled distance of treated animals versus control animals (the first 5 min were discarded) was calculated.

Row | Compound | % Inhibition 10^−5M [1] [%] | % Inhibition 10^−7M [1] [%] | % Inhibition 10^−5M [2] [%] | % Inhibition 10^−7M [2] [%] | % Inhibition Motor Activity [3] [%]
1 | Cc1ccc(-c2nc3ccc(C)cn3c2CNC(=O)c2ccc(N(C)C)cc2)cc1 [Example 3, 4-Dimethylamino-N-(6-methyl-2-p-tolyl-imidazo[1,2-a]pyridin-3-ylmethyl)-benzamide] | 73.9 | 21.4 | 17.4 | 0.0 | 45.59
2 | Cc1ccc(-c2nc3ccc(C)cn3c2CNC(=O)c2ccco2)cc1 [Example 4, Furan-2-carboxylic acid (6-methyl-2-p-tolyl-imidazo[1,2-a]pyridin-3-ylmethyl)-amide] | 97.4 | 19.4 | 82.9 | 0.0 | 73.28
3 | Cc1ccc(-c2nc3ccc(C)cn3c2CNC(=O)c2ccccn2)cc1 [Example 5, Pyridine-2-carboxylic acid (6-methyl-2-p-tolyl-imidazo[1,2-a]pyridin-3-ylmethyl)-amide] | 99.8 | 75.5 | 95.3 | 28.4 | 90.40
4 | Cc1ccc(-c2nc3ccc(C)cn3c2CNC(=O)c2ccc(C)n2C)cc1 [Example 6, 1,5-Dimethyl-1H-pyrrole-2-carboxylic acid (6-methyl-2-p-tolyl-imidazo[1,2-a]pyridin-3-ylmethyl)-amide] | 96.1 | 22.5 | 64.4 | 0.0 | 78.09
5 | Cc1ccc(-c2nc3ccc(C)cn3c2CNC(=O)c2ccncc2)cc1 [Example 7, N-(6-Methyl-2-p-tolyl-imidazo[1,2-a]pyridin-3-ylmethyl)-isonicotinamide] | 98.0 | 36.5 | 81.3 | 0.0 | 72.45
6 | COc1ccc(C(=O)NCc2c(-c3ccc(C)cc3)nc3ccc(C)cn23)cc1 [Example 11, 4-Methoxy-N-(6-methyl-2-p-tolyl-imidazo[1,2-a]pyridin-3-ylmethyl)-benzamide] | 70.7 | 29.0 | 6.5 | 0.0 | 55.43
7 | CC(=O)c1ccc(C(=O)NCc2c(-c3ccc(C)cc3)nc3ccc(C)cn23)cc1 [Example 12, 4-Acetyl-N-(6-methyl-2-p-tolyl-imidazo[1,2-a]pyridin-3-ylmethyl)-benzamide] | 73.7 | 18.6 | 19.0 | 0.0 | 56.84
8 | Cc1ccc(-c2nc3ccc(C)cn3c2CNC(=O)C2CC2)cc1 [Example 13, Cyclopropanecarboxylic acid (6-methyl-2-p-tolyl-imidazo[1,2-a]pyridin-3-ylmethyl)-amide] | 97.6 | 53.8 | 67.8 | 0.0 | 90.36
9 | Cc1ccc(-c2nc3ccc(C)cn3c2CNC(=O)c2ccc([N+](=O)[O-])o2)cc1 [Example 14, 5-Nitro-furan-2-carboxylic acid (6-methyl-2-p-tolyl-imidazo[1,2-a]pyridin-3-ylmethyl)-amide] | 99.4 | 51.4 | 92.2 | 26.2 | 89.82
10 | Cc1ccc(-c2nc3ccc(C)cn3c2CNC(=O)c2occc2C)cc1 [Example 15, 3-Methyl-furan-2-carboxylic acid (6-methyl-2-p-tolyl-imidazo[1,2-a]pyridin-3-ylmethyl)-amide] | 74.5 | 0.0 | 41.6 | 0.0 | 80.12
11 | Cc1ccc(-c2nc3ccc(C)cn3c2CNC(=O)c2sccc2C)cc1 [Example 16, 3-Methyl-thiophene-2-carboxylic acid (6-methyl-2-p-tolyl-imidazo[1,2-a]pyridin-3-ylmethyl)-amide] | 95.4 | 2.2 | 52.9 | 0.0 | 82.38
12 | Cc1ccc(-c2nc3ccc(C)cn3c2CNC(=O)c2ccnc(Cl)c2)cc1 [Example 17, 2-Chloro-N-(6-methyl-2-p-tolyl-imidazo[1,2-a]pyridin-3-ylmethyl)-isonicotinamide] | 94.5 | 0.0 | 24.4 | 0.0 | 54.40
13 | Cc1ccc(-c2nc3ccc(C)cn3c2CNC(=O)/C=C/c2ccco2)cc1 [Example 80, 3-Furan-2-yl-N-(6-methyl-2-p-tolyl-imidazo[1,2-a]pyridin-3-ylmethyl)-acrylamide] | 88.9 | 0.0 | – | – | 61.89
14 | Cc1ccc(-c2nc3ccc(C)cn3c2CNC(=O)c2ccsc2)cc1 [Example 82, Thiophene-3-carboxylic acid (6-methyl-2-p-tolyl-imidazo[1,2-a]pyridin-3-ylmethyl)-amide] | 98.7 | 33.0 | – | – | 61.93
15 | Cc1ccc(-c2nc3ccc(C)cn3c2CNC(=O)c2cc(C)n(C3CC3)c2C)cc1 [Example 84, 1-Cyclopropyl-2,5-dimethyl-1H-pyrrole-3-carboxylic acid (6-methyl-2-p-tolyl-imidazo[1,2-a]pyridin-3-ylmethyl)-amide] | – | – | – | – | 36.32
16 | Cc1ccc(-c2nc3ccc(C)cn3c2CNC(=O)c2cc(F)c(Cl)cc2Cl)cc1 [Example 87, 2,4-Dichloro-5-fluoro-N-(6-methyl-2-p-tolyl-imidazo[1,2-a]pyridin-3-ylmethyl)-benzamide] | – | – | – | – | 48.13
17 | Cc1ccc(-c2nc3ccc(C)cn3c2CNC(=O)c2csc([N+](=O)[O-])c2)cc1 [Example 88, 5-Nitro-thiophene-3-carboxylic acid (6-methyl-2-p-tolyl-imidazo[1,2-a]pyridin-3-ylmethyl)-amide] | 96.2 | 0.0 | – | – | 51.87
18 | Cc1ccc(-c2nc3ccc(C)cn3c2CN(C)C(=O)c2cnccn2)cc1 [Example 96, Pyrazine-2-carboxylic acid methyl-(6-methyl-2-p-tolyl-imidazo[1,2-a]pyridin-3-ylmethyl)-amide] | 99.9 | 80.5 | – | – | 44.04
19 | Cc1ccc(-c2nc3ccc(C)cn3c2CN(C)C(=O)c2cnoc2C)cc1 [Example 99, 5-Methyl-isoxazole-4-carboxylic acid methyl-(6-methyl-2-p-tolyl-imidazo[1,2-a]pyridin-3-ylmethyl)-amide] | 99.2 | 52.5 | – | – | 13.33
